Assay results reported in PMC12368606 (2025).

Key:
[1] = tested on: Seq1s-4U (RNA, hairpin) ACCGUGACGGGCCUUUUGGCUAUACGCGGU; test: NMR solution structure and titration; conditions: phosphate buffer, 5% D2O for titration
[2] = tested on: Seq1s (RNA, hairpin) ACCGUGACGGGCCUUUUUGGCUAUACGCGGU; test: UV thermal melting; conditions: 10 μM NA; Tm 66.9 ± 2.0 to 72.1 ± 1.5 °C
[3] = tested on: Seq1s (RNA, hairpin) ACCGUGACGGGCCUUUUUGGCUAUACGCGGU; test: CSI-TOF mass spectrometry; conditions: 40 μM NA, 5 μM RNA

binding [1]: yes
ΔTm [2]: 5.2 °C
binding [3]: yes
Structure (SMILES): Cc1ccc2ccc(NC(=O)CCNCCC(=O)NCc3ccc4ccc(=O)[nH]c4n3)nc2n1
